In PMC9923724, “Half sandwich-type osmium, ruthenium, iridium and rhodium complexes with bidentate glycosyl heterocyclic ligands induce cytostasis in platinum-resistant ovarian cancer cells and bacteriostasis in Gram-positive multiresistant bacteria” (Frontiers in Chemistry, 2023):
Values joined by “and” are separate entries in the source; they are usually repeats but may differ in a detail not shown here. Equal entries are not always repeated.

Tests used:
[1] = system: A2780 ovarian cancer cells; test: SRB assay (cytostasis, 48 h) on A2780 cells; assay type: cell-based; settings: 48 h treatment
Description: (§1) First, we assessed a set of osmium complexes (similar to Ia [[Kacsir et al., 2022]) in Figure 1] and their sugar-derived ligands, in which the benzoyl protective groups on the carbohydrate moiety were replaced by aliphatic acyl groups of different chain length (straight chain C3-C7–CO). Osmium was selected as a central ion, since osmium complexes had the best biological activity in our previous studies ([Balázs et al., 2022]; [Kacsir et al., 2022]). These compounds were tested on A2780 ovarian cancer cells for toxicity and cytostasis. The therapy of ovarian cancer is centered around platinum compounds ([Brown et al., 2019]; [Sipos et al., 2021]), therefore, it was logical to use a cellular model of ovarian cancer for the initial testing of the compounds. Toxicity was assessed using the MTT assay that measures the activity of mitochondrial complex I. We chose 4 h long treatment as in an MTT assay this time point is suitable to detect rapid, direct toxicity. Cytostasis was assessed after 48 h of treatment using the SRB assay that assesses protein content that corresponds to cell count. The characteristics of the compounds are detailed in Table 2.
(§2) 3 × 10^3 A2780 cells, were plated to 96 well plates. Cells were treated with the compounds in the concentrations indicated for either 4 h for an MTT assay or for 48 h for an SRB assay. Data is represented as average ± SD, from three biological replicates; individual assays were performed in duplicates. Values were normalized for vehicle treated cells, absorbance for vehicle treated cells equals to 1. […] Except for the Os-6 complex, Two-way ANOVA test was performed and all values were compared with each other (Tukey’s post hoc test). […] Non-linear regression was performed on the data.
(§3) 3 × 10^3 A2780 cells, 2 × 10^3 ID8 cells and 4 × 10^3 primary fibroblasts were plated to 96 well plates. Cells were treated with the compounds in the concentrations indicated for either 4 h for an MTT assay or for 48 h for an SRB assay. Data is represented as average ± SD, from three biological replicates; individual assays were performed in duplicates. Values were normalized for vehicle treated cells, absorbance for vehicle treated cells equals to 1. Statistical significance was assessed using two-way ANOVA test comparing the free ligand and each complex as a complex-ligand pair. Before the test normality was assessed using the D’Agostino-Pearson test. The ID8 SRB Ir-7+L-7 dataset had lognormal distribution. […] All other datasets had normal distribution. For better visibility the p values are presented in an excel sheet at https://figshare.com/s/2c942a812caea8869a67. Non-linear regression was performed on the A2780 SRB and the ID8 SRB datasets.
The assay was performed similar to ([Kovács et al., 2019]). Cells were seeded in 96 well plates the day before the assay. Cells were treated with the compounds for 48 h. Cells were fixed with 10% trichloroacetic acid (TCA). Fixed cells were washed in distilled water 3 times followed by staining with SRB (0.4 m/V% dissolved in 1% acetic acid) for 10 min. Stained cells were washed in 1% acetic acid 5 times; acetic acid was removed and cells were left to dry. Protein-bound SRB was released by adding 100 µl 10 mM Tris base. Plates were measured in a plate photometer (Thermo Scientific Multiscan GO spectrophotometer, Waltham, MA, United States) at 540 nm. On each plate wells were designed to contain vehicle-treated cells. In calculations the readings for these wells was considered as 1 and all readings were expressed relative to these values.
Statistical analysis was performed using 8.0.1 version of Graphpad Prism. Values were tested for normal distribution using the D’Agostino and Pearson normality test. When necessary, values were log normalized or were normalized using the Box-Cox normalization method ([Box and Cox, 1964]) as indicated in the figure captions. […]

[2] = Determination of the distribution coefficients (logD); assay type: physicochemical; settings: distribution coefficient
[3] = system: Enterococcus faecalis (ATCC29212); test: Broth microdilution MIC, Enterococcus faecalis reference strain; assay type: cell-based; settings: for MIC, Reference E. faecalis: Enterococcus faecalis ATCC29212, 24 h
Description: (§4) The MIC values of the complexes were determined against the reference strains of S. aureus (ATCC29213) and E. faecalis. (ATCC29212) and against clinical VRE and MRSA isolates by microdilution assays (repeated at least twice in duplicates) as described in Materials and Methods. The numbers indicate how many isolates were susceptible to the compound out of those tested; i.e., 1/6 stands for 1 isolate was susceptible out of 6 tested. […] Cells were harvested and lysed. Cellular proteins was separated on a 10% SDS-PAGE gel and were blotted. Blots were probed with 4HNE antibody (top blot), the lower blot was stained with amido black. Arrows point at band of interest. Experiments were repeated three times and a representative blot is shown. On the blots brightness and contrast were adjusted. […] Each was matched to a substance and strain by its position over the x-axis categories. / Ir-7: ND and 0/3 (left plot) and ND and 0/6 (right plot) were matched to E. faecalis/VRE and S. aureus/MRSA by position only.
(§5) We used the reference strains of Staphylococcus aureus (ATCC29213), and Enterococcus faecalis (ATCC29212) that were purchased from ATCC (Manassas, VA, United States).
(§6) Microdilution experiments were performed according to the standards of EUCAST ([EUCAST, 2021]). […] The inoculated plates were incubated for 24 h at 37°C then were assessed visually. […] All experiments were performed at least twice in duplicates.

[4] = system: Staphylococcus aureus (ATCC29213); test: Broth microdilution MIC, Staphylococcus aureus reference strain; assay type: cell-based; settings: for MIC, Reference S. aureus: Staphylococcus aureus ATCC29213, 24 h
Description: as §4, §5, §6

[5] = system: A2780 ovarian cancer cells; test: MTT reduction assay (rapid toxicity, 4 h) on A2780 cells; assay type: cell-based; settings: 4 h treatment
Description: as §1, §2, §3
MTT reduction assay measures the activity of mitochondrial complex I and can be used to detect toxicity ([Virág et al., 1998]; [Henslee et al., 2016]). The assay was performed similar to ([Bakondi et al., 2003]). Briefly, cells were plated in 96 well plates the day before the assay. Cells were treated with the compounds for 4 h, then MTT was added in 0.5 mg/ml final concentration and cells were incubated at 37°C in a cell incubator. Culture media was removed and the reduced MTT dye was dissolved in dimethyl-sulfoxide (DMSO) and plates were measured in a plate photometer (Thermo Scientific Multiscan GO spectrophotometer, Waltham, MA, United States) at 540 nm. On each plate wells were designed to contain untreated/vehicle-treated cells. In calculations the readings for these wells was considered as 1 and all readings were expressed relative to these values.

[6] = system: methicillin-resistant Staphylococcus aureus (MRSA) clinical isolates; test: Broth microdilution MIC, clinical MRSA isolates; assay type: cell-based; settings: for MRSA isolates susceptible out of those tested: 6 isolates tested, susceptible = MIC up to 40 µM; for MIC, MRSA 20 426: clinical isolate 20 426, blood, 2020; for MIC, MRSA 24 035: clinical isolate 24 035, wound; for MIC, MRSA 24 035 / MIC, MRSA 24 268 / MIC, MRSA 24 272 / MIC, MRSA 24 328 / MIC, MRSA 24 408: 2018; for MIC, MRSA 24 268: clinical isolate 24 268, throat; for MIC, MRSA 24 272: clinical isolate 24 272, throat; for MIC, MRSA 24 328: clinical isolate 24 328, throat; for MIC, MRSA 24 408: clinical isolate 24 408, bronchial
Description: as §4
(§7) We used a set of clinical isloates of S. aureus and E. faecium that were collected at the Medical Center of the University of Debrecen (Hungary) between 01. 01. 2018.—31. 12. 2020. The clinical isolates were identified using a Microflex MALDI-TOF mass spectrometer (Bruker, Billerica, MA, United States). Antibiotic susceptibility of the isolates was tested following the European Committee on Antimicrobial Susceptibility Testing ([EUCAST, 2021]) guidelines valid at the time of collection.
as §6

[7] = system: vancomycin-resistant Enterococcus (VRE) clinical isolates; test: Broth microdilution MIC, clinical VRE isolates; assay type: cell-based, E. faecium; settings: for VRE isolates susceptible out of those tested: 3 isolates tested, susceptible = MIC up to 40 µM; for MIC, VRE 25 051: clinical isolate 25 051, nephrostoma; for MIC, VRE 25 051 / MIC, VRE 25 498 / MIC, VRE 27 085: 2018; for MIC, VRE 25 498: clinical isolate 25 498, rectal swab; for MIC, VRE 27 085: clinical isolate 27 085, wound
Description: as §4, §7, §6

SMILES | A2780 SRB Max. (maximal inhibition) [1] [%] | LogD [2] | MIC, Reference S. aureus [4] | A2780 MTT Max. (maximal inhibition) [5] [%] | MRSA isolates susceptible out of those tested [6] | MIC, MRSA 20 426 [6] | MIC, MRSA 24 035 [6] | MIC, MRSA 24 268 [6] | MIC, MRSA 24 272 [6] | MIC, MRSA 24 328 [6] | MIC, MRSA 24 408 [6] | VRE isolates susceptible out of those tested [7] | MIC, VRE 25 051 [7] | MIC, VRE 25 498 [7] | MIC, VRE 27 085 [7] | also measured
CCCCCC(=O)OC[C@H]1O[C@@H](n2cc(-c3ccccn3)nn2)[C@H](OC(=O)CCCCC)[C@@H](OC(=O)CCCCC)[C@@H]1OC(=O)CCCCC [L-4] | 26.9 |  |  |  |  |  |  |  |  |  |  |  |  |  |  | 
O=C(OC[C@H]1O[C@@H](n2cc(-c3ccc4ccccc4n3)nn2)[C@H](OC(=O)c2ccccc2)[C@@H](OC(=O)c2ccccc2)[C@@H]1OC(=O)c1ccccc1)c1ccccc1 [L-7, 1-(2’,3’,4’,6’-tetra-O-benzoyl-β-D-glucopyranosyl)-4-(quinolin-2-yl)-1,2,3,-triazole] | 16.9 |  |  |  |  |  |  |  |  |  |  |  |  |  |  | 
CCCCCCCC(=O)OCC1OC(n2cc(-c3ccccn3)nn2)C(OC(=O)CCCCCCC)C(OC(=O)CCCCCCC)C1OC(=O)CCCCCCC.Cc1ccc(C(C)C)cc1.F[P-](F)(F)(F)(F)F.[Cl][Os+] (mixture of isomers) [Os-6] | 88.4 | 2.8 | 40< µM | 76.9 | 0/6 | 40< µM | 40< µM | 40< µM | 40< µM | 40< µM | 40< µM | 0/3 | 40< µM | 40< µM | 40< µM | MIC, Reference E. faecalis [3]: 40< µM; MIC (μM) (E. faecalis), Figure 11 ([3]; reference strain ATCC29212, printed in the picture): ND (ND—not detected, MIC>40 µM); MIC (μM) (S. aureus), Figure 11 ([4]; reference strain ATCC29213): ND (ND—not detected, MIC>40 µM); IC50 [5]: 16.5 µM; MIC against clinical MRSA isolates (as a group) ([6]; 6 clinical MRSA isolates): > 40 µM; MIC against clinical VRE isolates (as a group) ([7]; 3 clinical VRE isolates): > 40 µM
CCCC(=O)OCC1OC(n2cc(-c3ccccn3)nn2)C(OC(=O)CCC)C(OC(=O)CCC)C1OC(=O)CCC.Cc1ccc(C(C)C)cc1.F[P-](F)(F)(F)(F)F.[Cl][Os+] (mixture of isomers) [Os-2] | >90 | 2.5 | 2.5—10 µM and 2.5 µM | 88 | 6/6 | 2.5 µM | 2.5 µM | 5 µM | 5 µM | 2.5 µM | 5 µM | 3/3 | 10 µM | 10 µM | 10 µM | IC50 [1]: 6.23 µM
CCCCC(=O)OCC1OC(n2cc(-c3ccccn3)nn2)C(OC(=O)CCCC)C(OC(=O)CCCC)C1OC(=O)CCCC.Cc1ccc(C(C)C)cc1.F[P-](F)(F)(F)(F)F.[Cl][Os+] (mixture of isomers) [Os-3] | >90 | 2.6 | 2.5—10 µM and 2.5 µM | 84.4 | 6/6 | 5 µM | 2.5 µM | 2.5 µM | 5 µM | 2.5 µM | 5 µM | 3/3 | 5 µM | 5 µM | 5 µM | MIC, Reference E. faecalis [3]: 2.5—10 µM and 5 µM; IC50 [1]: 2.1 µM
CCCCC(=O)OC[C@H]1O[C@@H](n2cc(-c3ccccn3)nn2)[C@H](OC(=O)CCCC)[C@@H](OC(=O)CCCC)[C@@H]1OC(=O)CCCC [L-3] | 32.0 |  |  |  |  |  |  |  |  |  |  |  |  |  |  | 
CCCC(=O)OC[C@H]1O[C@@H](n2cc(-c3ccccn3)nn2)[C@H](OC(=O)CCC)[C@@H](OC(=O)CCC)[C@@H]1OC(=O)CCC [L-2] | 21.2 |  |  |  |  |  |  |  |  |  |  |  |  |  |  | 
CCCCCCC(=O)OC[C@H]1O[C@@H](n2cc(-c3ccccn3)nn2)[C@H](OC(=O)CCCCCC)[C@@H](OC(=O)CCCCCC)[C@@H]1OC(=O)CCCCCC [L-5] | 28.5 |  |  |  |  |  |  |  |  |  |  |  |  |  |  | 
